This is an account of results in ChEMBL document CHEMBL4229455, “Synthesis and anticancer activity of novel bisindolylhydroxymaleimide derivatives with potent GSK-3 kinase inhibition” (Bioorg Med Chem, 2018).

Some results are limits rather than exact numbers.

In assay [1] the target is Cyclin-dependent kinase 5/CDK5 activator 1 (Homo sapiens) (UniProt Q00535+Q15078). Description: Inhibition of recombinant full length human CDK5/p25 expressed in bacteria assessed as residual activity at 10 uM using histone H1 as substrate in presence of [gamma-33P]ATP.
Chain of Cyclin-dependent kinase 5/CDK5 activator 1 (Homo sapiens) (Q00535 whole entry): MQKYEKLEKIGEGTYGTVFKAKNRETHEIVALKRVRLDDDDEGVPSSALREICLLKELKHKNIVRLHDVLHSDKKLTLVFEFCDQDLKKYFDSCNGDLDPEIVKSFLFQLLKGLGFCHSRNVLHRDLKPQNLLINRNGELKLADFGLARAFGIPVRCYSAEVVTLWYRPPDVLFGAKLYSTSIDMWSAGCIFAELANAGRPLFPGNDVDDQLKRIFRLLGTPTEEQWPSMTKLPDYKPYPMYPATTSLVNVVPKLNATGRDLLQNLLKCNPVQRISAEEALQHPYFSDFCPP
Chain of Cyclin-dependent kinase 5/CDK5 activator 1 (Homo sapiens) (Q15078 99-307 partner limits assumed): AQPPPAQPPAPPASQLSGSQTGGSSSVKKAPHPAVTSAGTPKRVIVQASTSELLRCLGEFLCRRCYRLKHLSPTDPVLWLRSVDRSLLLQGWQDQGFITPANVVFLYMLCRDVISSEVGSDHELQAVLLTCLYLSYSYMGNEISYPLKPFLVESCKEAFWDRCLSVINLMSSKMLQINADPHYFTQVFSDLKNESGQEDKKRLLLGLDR
The test system of assay [2] is HCT-15. As to the kind of experiment: Cytotoxicity against human HCT15 cells assessed as cell growth at 10 uM after 48 hrs by SRB assay relative to control. The settings on record: HCT-15, 48 h, read-out: Activity. The format is functional. In general terms: The SRB assay estimates cell density from bound dye.
For assay [3], the target named is CDK2/Cyclin A2 (Homo sapiens, UniProt P24941). As to the kind of experiment: Inhibition of full length human CDK2/cyclin A using histone H1 as substrate in presence of [gamma-33P]ATP. It is filed as protein-complex assay.
Assay [4] deals with UACC-257. As to the kind of experiment: Cytotoxicity against human UACC257 cells assessed as cell growth at 10 uM after 48 hrs by SRB assay relative to control. The format is functional. To be noted: UACC-257, 48 h, read-out: Activity.
Assay [5] has as its target T1, Serine/threonine-protein kinase haspin (Homo sapiens, UniProt Q8TF76).
T1 sequence (Q8TF76 whole entry): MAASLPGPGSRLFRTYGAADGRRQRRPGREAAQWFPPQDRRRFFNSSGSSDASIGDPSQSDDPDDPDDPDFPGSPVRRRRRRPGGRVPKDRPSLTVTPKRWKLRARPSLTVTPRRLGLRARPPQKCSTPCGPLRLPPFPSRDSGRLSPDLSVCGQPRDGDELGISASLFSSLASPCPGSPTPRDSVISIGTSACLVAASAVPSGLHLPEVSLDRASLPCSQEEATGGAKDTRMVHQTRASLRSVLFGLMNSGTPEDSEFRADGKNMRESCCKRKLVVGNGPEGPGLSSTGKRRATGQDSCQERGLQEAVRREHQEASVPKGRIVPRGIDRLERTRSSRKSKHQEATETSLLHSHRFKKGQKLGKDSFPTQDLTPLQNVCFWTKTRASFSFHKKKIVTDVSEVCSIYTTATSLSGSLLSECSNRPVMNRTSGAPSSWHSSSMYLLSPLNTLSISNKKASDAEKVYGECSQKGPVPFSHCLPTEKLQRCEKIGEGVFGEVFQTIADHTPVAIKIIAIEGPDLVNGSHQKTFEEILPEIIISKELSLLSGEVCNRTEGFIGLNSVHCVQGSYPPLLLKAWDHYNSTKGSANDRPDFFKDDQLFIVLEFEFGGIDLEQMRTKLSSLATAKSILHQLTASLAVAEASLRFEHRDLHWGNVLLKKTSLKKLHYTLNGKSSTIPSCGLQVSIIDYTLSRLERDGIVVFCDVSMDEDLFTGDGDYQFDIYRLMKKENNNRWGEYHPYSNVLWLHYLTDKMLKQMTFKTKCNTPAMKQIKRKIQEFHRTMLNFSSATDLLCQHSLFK
Description: Inhibition of recombinant human haspin kinase domain expressed in bacteria using histone H3 (1 to 21 residues) peptide as substrate in presence of [gamma-33P]ATP.

Assay [6] relates to MOLT-4. As to the kind of experiment: Cytotoxicity against human MOLT4 cells assessed as cell growth at 10 uM after 48 hrs by SRB assay relative to control. The settings on record: MOLT-4, 48 h, read-out: Activity. The format is functional.
In assay [7] the target is Receptor-interacting serine/threonine-protein kinase 3 (Homo sapiens, UniProt Q9Y572). As to the kind of experiment: Inhibition of recombinant full length human RIPK3 expressed in baculovirus infected Sf9 insect cells using MBP as substrate in presence of [gamma-33P]ATP.
Chain of Receptor-interacting serine/threonine-protein kinase 3 (Q9Y572 whole entry): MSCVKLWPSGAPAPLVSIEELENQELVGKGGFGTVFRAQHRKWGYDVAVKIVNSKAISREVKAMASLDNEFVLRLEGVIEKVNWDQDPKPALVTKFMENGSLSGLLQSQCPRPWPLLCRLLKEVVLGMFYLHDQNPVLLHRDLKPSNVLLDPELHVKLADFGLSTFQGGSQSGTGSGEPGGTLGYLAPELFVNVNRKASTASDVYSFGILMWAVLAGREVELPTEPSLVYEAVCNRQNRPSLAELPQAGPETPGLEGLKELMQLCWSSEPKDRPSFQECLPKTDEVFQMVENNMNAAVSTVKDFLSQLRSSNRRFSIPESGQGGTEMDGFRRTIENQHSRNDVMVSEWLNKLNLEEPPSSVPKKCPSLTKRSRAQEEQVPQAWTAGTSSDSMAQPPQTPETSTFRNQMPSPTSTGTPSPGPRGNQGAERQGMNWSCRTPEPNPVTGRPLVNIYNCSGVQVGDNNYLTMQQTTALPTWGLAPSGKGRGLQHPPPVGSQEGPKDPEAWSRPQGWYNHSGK
Assay [8] concerns RXF 393. As to the kind of experiment: Cytotoxicity against human RXF393 cells assessed as cell growth at 10 uM after 48 hrs by SRB assay relative to control. It is filed as functional. The settings on record: RXF 393, 48 h, read-out: Activity.
Assay [9] relates to KM12. Description: Cytotoxicity against human KM12 cells assessed as cell growth at 10 uM after 48 hrs by SRB assay relative to control. The settings on record: KM12, 48 h, read-out: Activity. The format is functional.
In assay [10] the test system is HOP-92. Description: Cytotoxicity against human HOP92 cells assessed as cell growth at 10 uM after 48 hrs by SRB assay relative to control. To be noted: HOP-92, 48 h, read-out: Activity. The format is functional.
Assay [11] relates to A498. As to the kind of experiment: Cytotoxicity against human A498 cells assessed as cell growth at 10 uM after 48 hrs by SRB assay relative to control. The format is functional. The settings on record: A498, 48 h, read-out: Activity.
Assay [12] relates to RPMI-8226. Description: Cytotoxicity against human RPMI8226 cells assessed as cell growth at 10 uM after 48 hrs by SRB assay relative to control. The settings on record: RPMI-8226, 48 h, read-out: Activity. It is filed as functional.
Assay [13] concerns SW-620. As to the kind of experiment: Cytotoxicity against human SW620 cells assessed as cell growth at 10 uM after 48 hrs by SRB assay relative to control. The format is functional. To be noted: SW-620, 48 h, read-out: Activity.
Assay [14] deals with OVCAR-4. As to the kind of experiment: Cytotoxicity against human OVCAR4 cells assessed as cell growth at 10 uM after 48 hrs by SRB assay relative to control. The format is functional. The settings on record: OVCAR-4, 48 h, read-out: Activity.
The test system of assay [15] is T47D. Description: Cytotoxicity against human T47D cells assessed as cell growth at 10 uM after 48 hrs by SRB assay relative to control. It is filed as functional. To be noted: read-out: Activity.
Assay [16] concerns SN12C. Description: Cytotoxicity against human SN12C cells assessed as cell growth at 10 uM after 48 hrs by SRB assay relative to control. It is filed as functional. To be noted: read-out: Activity.
The test system of assay [17] is Hs-578T. Description: Cytotoxicity against human Hs 578T cells assessed as cell growth at 10 uM after 48 hrs by SRB assay relative to control. It is filed as functional. To be noted: read-out: Activity.
Assay [18] concerns SK-MEL-28. Description: Cytotoxicity against human SK-MEL-28 cells assessed as cell growth at 10 uM after 48 hrs by SRB assay relative to control. It is filed as functional. The settings on record: SK-MEL-28, 48 h, read-out: Activity.
Assay [19] has as its system HCC 2998. Description: Cytotoxicity against human HCC2998 cells assessed as cell growth at 10 uM after 48 hrs by SRB assay relative to control. The format is functional. The settings on record: HCC 2998, 48 h, read-out: Activity.
Assay [20] relates to TK-10. Description: Cytotoxicity against human TK10 cells assessed as cell growth at 10 uM after 48 hrs by SRB assay relative to control. It is filed as functional. The settings on record: TK-10, 48 h, read-out: Activity.
Assay [21] addresses Aurora kinase B (Homo sapiens, UniProt Q96GD4). Description: Inhibition of recombinant full length human aurora B expressed in baculovirus infected Sf9 insect cells assessed as residual activity at 10 uM using MBP as substrate in presence of [gamma-33P]ATP.
The subject of assay [22] is LOX IMVI. Description: Cytotoxicity against human LOXIMVI cells assessed as cell growth at 10 uM after 48 hrs by SRB assay relative to control. It is filed as functional. The settings on record: read-out: Activity.
For assay [23], the system named is OVCAR-3. As to the kind of experiment: Cytotoxicity against human OVCAR3 cells assessed as cell growth at 10 uM after 48 hrs by SRB assay relative to control. The settings on record: OVCAR-3, 48 h, read-out: Activity. The format is functional.
Assay [24] has as its system SK-MEL-5. As to the kind of experiment: Cytotoxicity against human SK-MEL-5 cells assessed as cell growth at 10 uM after 48 hrs by SRB assay relative to control. It is filed as functional. The settings on record: SK-MEL-5, 48 h, read-out: Activity.
The test system of assay [25] is PC-3. As to the kind of experiment: Cytotoxicity against human PC3 cells assessed as cell growth at 10 uM after 48 hrs by SRB assay relative to control. It is filed as functional. To be noted: PC-3, 48 h, read-out: Activity.

Chain of Aurora kinase B (Q96GD4 whole entry): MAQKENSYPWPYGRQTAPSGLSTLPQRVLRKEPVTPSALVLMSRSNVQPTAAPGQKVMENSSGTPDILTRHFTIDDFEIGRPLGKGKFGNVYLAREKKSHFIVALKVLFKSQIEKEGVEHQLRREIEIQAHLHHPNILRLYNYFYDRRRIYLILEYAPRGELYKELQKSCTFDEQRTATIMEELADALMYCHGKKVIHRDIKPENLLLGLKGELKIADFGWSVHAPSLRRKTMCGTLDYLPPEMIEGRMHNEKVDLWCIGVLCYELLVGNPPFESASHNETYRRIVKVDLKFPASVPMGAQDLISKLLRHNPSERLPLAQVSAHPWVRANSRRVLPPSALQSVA

What is called IC50 is the midpoint of a concentration-inhibition curve. With `Cn1cc(C2=C(c3cn(C)c4ccccc34)C(=O)N(O)C2=O)c2ccccc21`, the Activity is 82% in assay [1] and 84% in assay [21]. The growth at 10 µM came out at 99.9% in assay [2]; 88.3% in assay [4]; 101% in assay [6]; 82.8% in assay [8]; 104% in assay [9]; 80.8% in [10]. Moreover, the growth at 10 µM in assay [11] turned out to be 85.8%; in assay [12] it was 79.3%; in assay [13], 95.9%; in assay [14] it was 103%; in assay [15], 96.4%; in assay [16] it was 94.5%. In addition, the growth at 10 µM stood at 95.8% in assay [17]; 107% in assay [18]; 106% in assay [19]; 118% in [20]; 72.8% in assay [22]; 111% in assay [23]. Besides, in assay [24], the growth at 10 µM came to 92.8%. Besides, the IC50 in assay [3], in [5] and in assay [7] was greater than 10 µM throughout.
As for `N#CCCCCCn1cc(C2=C(c3cn(CCCCCC#N)c4ccccc34)C(=O)NC2=O)c2ccccc21`, the Activity in assay [1] turned out to be 46%; in [21] it was 83%. Besides, the growth at 10 µM in [2] was found to be 69.4%; in assay [4] it was 136%; in assay [8] it was 62.1%; in assay [9], 81%; in assay [10] it was 142%; in assay [11] it was 54.5%. Also, the growth at 10 µM in assay [12] is 86.8%; in assay [13], 108%; in assay [14], 81.2%; in assay [15] it was 67.6%; in assay [16], 87.7%; in assay [17], 59.7%. Moreover, the growth at 10 µM came to 133% in assay [18]; 107% in [19]; 101% in [20]; 58% in assay [25]; 69.5% in [22]; 72.7% in assay [23]. Further, the growth at 10 µM in assay [24] is 78.7%. Also, the IC50 in assay [3] is 2.5 µM; in assay [5], greater than 10 µM; in assay [7], greater than 10 µM.
Turning to `Cn1cc(C2=C(c3cn(C)c4ncccc34)C(=O)NC2=O)c2ccccc21`, the Activity in assay [1] is -1%; in assay [21], 84%. Also, the growth at 10 µM is 21 to 33.4% in assay [2]; 35 to 84.8% in [4]; 8 to 12.6% in assay [6]; 8.78 to 12% in assay [9]; 12% in assay [10]; 45.4% in assay [12]. Moreover, the growth at 10 µM in assay [13] was in the range of 12.9 to 20%; in [14], 34 to 59%; in [15], 10 to 24.2%; in assay [16] it was 4 to 30.7%; in assay [18] it was 8 to 51.3%; in assay [19], 30 to 58.9%. Besides, the growth at 10 µM in [20] lay within 26.3 to 33%; in [25] it was 23 to 44.6%; in assay [22] it was 16 to 41%; in assay [23], 25 to 50.2%. For the same compound, the IC50 in assay [3] was 0.1 µM; in assay [5] it was greater than 10 µM; in assay [7] it was greater than 10 µM.
